According to US9481667B2, “Salts and solid forms of isoquinolinones and composition comprising and methods of using the same” (Infinity Pharmaceuticals, Inc., priority 2013, dated 2016):
Converted amounts (≈) assume the structure as drawn. Counter-ions that a name gives are not always drawn. One block for each molecule: values may come before it.

How the values were obtained:
Format in all cases: physicochemical
[1] = Polymorph screen: maturation (temperature cycling RT/50° C.) in solvents
Method: One of 21 solvents was added to each vial in a number of aliquots (up to 30 volumes), with shaking. All the samples were then placed under maturation between RT to 50° C. (4 hours at each temperature) for 3 days. After maturation the samples were analysed by XRPD. Clear solutions were cooled to −20° C. (freezer). If no precipitation occurred samples were evaporated at RT.
Samples were placed under maturation between RT-50° C. (4 hours cycle) for 3 days. After maturation the samples were analyzed by XRPD. Clear solutions were then cooled to −20° C. (freezer). If no precipitation occurred, samples were evaporated at RT.
Bis-Sulfuric acid salt Form 1 of Compound 1 (ca. 35 mg) was weighed into vials. The corresponding solvents and solvent mixtures were added in portions of (a total of) 5, 10, 20, and 30 volumes at 50° C., with shaking, aiming for clear solutions. After each addition, the vials were allowed to shake for 20 minutes, after which observations were made. Solutions were allowed to evaporate, whereas slurries were set for 8 hour temperature cycling maturation, between RT and 50° C., for 5 days.
The oils obtained by solvent evaporation were used for the maturation screen. Anhydrous solvents (5 volumes; 100 μL) were used in order to minimise the amount of water present. Any solutions were allowed to slowly evaporate, whereas slurries were set for 8 hour temperature cycling maturation, between RT and 50° C. After 24 hours, most oils had not mixed with the solvents, and these were scratched with a spatula, producing slurries. These were matured for a further 24 hours before performing XRPD analysis.
Amorphous free base Compound 1 (ca. 25 mg) was weighed into vials. The selected solvents and solvent mixtures (5 to 20 volumes) were added with stirring. Any solutions were allowed to slowly evaporate, whereas slurries were set for 8 hour temperature cycling maturation, between RT and 50° C., for 2 days.
Crystals were ground in order to analyse them by XRPD. Suspensions were set for temperature cycling for a total of five days after which time XRPD analysis was carried out. […] Similar to the screen in Example 20, these XRPD patterns show slight differences (FIG. 37). However, solids from both screens obtained from the same solvent show a matching XRPD pattern, also supporting that this is a series of isostructural solvates. […]

[2] = 2-Week comparative stability studies; conditions: 2 weeks; 5° C. (closed); ambient (closed); ambient (closed-exposed to light); ambient (open); 60° C. (closed); RT/75% RH (open); 40° C./75% RH (open)
Method: (closed); (ii) ambient (closed); (iii) ambient (closed-exposed to light); (iv) ambient (open); (v) 60° C. (closed); (vi) RT/75% RH (open); and (vii) 40° C./75% RH (open).

[3] = Density and flowability (Hausner ratio, Carr index)
Excerpt: The Hausner ratio and the Carr index are correlated to the flowability of a powder or granular material. […] The flowability of both salts are acceptable for manufacturing.

[4] = Storage at 40° C./75% RH (solid-state stability); conditions: for Storage 40° C./75% RH for 1 week: HPLC Purity / Storage 40° C./75% RH for 1 week: XRPD (D8): 0.5 g scale-up salts; for Stability on storage at 40° C./75% RH: 1 week, solid form by XRPD
Method: The crystalline solids were filtered, dried at ambient conditions, and stored at 40° C./75% RH for 1 week and analyzed by ^1H NMR/IC.
Samples from the screen using amorphous free base Compound 1 were analysed by ^1H-NMR and DSC, and re-analysis by XRPD was also carried out after drying at 50° C./vacuum and storage at 40° C./75% RH (the same sample was dried and stored at elevated humidity).

[5] = Storage at 25° C./93% RH (solid-state stability); conditions: for Storage 25° C./93% RH for 1 week: HPLC Purity / Storage 25° C./93% RH for 1 week: XRPD (D8): 0.5 g scale-up salts; for Stability on storage at 25° C./93% RH: 1 week, solid form by XRPD
[6] = Thermodynamic aqueous solubility
[7] = Gravimetric vapour sorption (GVS); conditions: for XRPD post GVS (C2): 0.5 g scale-up salts; for GVS Single cycle: hygroscopicity, 0-90% RH; for GVS: moisture content reached on uptake at 40-50% RH: remains stable on sorption up to 90% RH and on desorption down to 10% RH
Method: Sorption isotherms were obtained using a Hiden IGASorp moisture sorption analyser, controlled by CFRSorp software. The sample temperature was maintained at 25° C. by a Huber re-circulating water bath. The humidity was controlled by mixing streams of dry and wet nitrogen, with a total flow rate of 250 ml/min. The relative humidity (RH) was measured by a calibrated Vaisala RH probe (dynamic range of 0-95% RH), located near the sample. The weight change, (mass relaxation) of the sample as a function of % RH was constantly monitored by the microbalance (accuracy ±0.001 mg). Typically 10-20 mg of sample was placed in a tared mesh stainless steel basket under ambient conditions. The sample was loaded and unloaded at 40% RH and 25° C. (typical room conditions). A moisture sorption isotherm was performed as outlined below (2 scans giving 1 complete cycle). The standard isotherm was performed at 25° C. at 10% RH intervals over a 0-90% RH range.
The software uses a least squares minimisation procedure together with a model of the mass relaxation, to predict an asymptotic value. The measured mass relaxation value must be within 5% of that predicted by the software, before the next % RH value is selected. The minimum equilibration time was set to 1 hour and the maximum to 4 hours. The sample was recovered after completion of the isotherm and re-analysed by XRPD.

Dissolution = conditions: in 15 min at pH 1.2
Method: The dissolution rate for the hydrate was about 80% in 15 min at pH 1.2 and about 20% in 60 min at pH 2.5. The dissolution rate of the bis-sulfuric acid salt was 100% in 15 min at both pH 1.2 and pH 2.5.

[8] = Stability of Hydrate Form 2 of free base: maturation in water or acetic acid:water; conditions: 40 hours
Method: Both solids obtained from maturation at 25° C.

[9] = Solubility assessment using free base Hydrate Form 2
Method: The best solvent systems (clear solutions) were methanol:anisole 1:1 and DMSO (10 volumes, at RT), dioxane (10 volumes, 50° C.), chloroform (20 volumes, RT). […]

[10] = Stability of Hydrate Form 2 of free base: maturation in water or acetic acid:water; conditions: 40 hours; remark: listed apart in the source
[11] = listed as Compound 1 Free Base Form 2

Salt stability on maturation in solvents ([1]; RT to 50° C., 3 days, Ethanol, 2-Propanol, 1-Propanol, Acetone, THF, 2-Propanol/Water (90/10 v/v), EtOH/Water (90/10 v/v), Acetic acid/Water (25/75 v/v): free base recrystallized): tendency to dissociate
Change of water content (KF) [2]: No significant change of water content
Flowability compared to the hydrate [3]: improved flowability
Storage 40° C./75% RH for 1 week: HPLC Purity [4]: HPLC Purity: 99.8% Peak Area
Storage 40° C./75% RH for 1 week: XRPD (D8) [4]: XRPD (D8): Unchanged
Stability on storage at 40° C./75% RH [4]: stable
Stability on storage at 40° C./75% RH ([4]; listed as mono-maleic acid salt): stable
Storage 25° C./93% RH for 1 week: HPLC Purity [5]: HPLC Purity: 99.8% Peak Area
Storage 25° C./93% RH for 1 week: XRPD (D8) [5]: XRPD (D8): Unchanged
XRPD (C2) post Aqueous solubility ([6]; solid after thermodynamic aqueous solubility): FB pattern 2
XRPD post GVS (C2) [7]: Unchanged
GVS Single cycle ([7]; 25° C.): Slightly hygroscopic
dissolution rate (Dissolution; listed as Form 1 of mono-maleic acid salt): 100%
SMILES: COc1cc(-c2cccc3cc([C@H](C)Nc4nc(N)ncc4C#N)n(-c4ccccc4)c(=O)c23)ccn1 [Form 1 of the maleic acid salt of Compound 1] [(S)-2-amino-4-((1-(8-(2-methoxypyridin-4-yl)-1-oxo-2-phenyl-1,2-dihydroisoquinolin-3-yl)ethyl)amino)pyrimidine-5-carbonitrile]

Solid form after maturation of slurries ([1]; slurries in 30 volumes of solvent, RT/50° C. cycling, five days (all experiments other than acetic acid/water, methanol, ethanol/water)): did not show any changes
Change of water content (KF) [2]: No significant change of water content
Flowability compared to the hydrate [3]: improved flowability
Storage 40° C./75% RH for 1 week: HPLC Purity [4]: HPLC Purity: Unchanged
Storage 40° C./75% RH for 1 week: XRPD (D8) [4]: XRPD (D8): Unchanged
Stability on storage at 40° C./75% RH [4]: stable
Stability on storage at 40° C./75% RH ([4]; listed as bis-sulfuric acid salts): stable
Storage 25° C./93% RH for 1 week: HPLC Purity [5]: HPLC Purity: Unchanged
Storage 25° C./93% RH for 1 week: XRPD (D8) [5]: XRPD (D8): Unchanged
XRPD post GVS (C2) [7]: Unchanged
GVS Single cycle ([7]; 25° C.): Slightly hygroscopic
dissolution rate (Dissolution; listed as Form 1 of bis-sulfuric acid salt monohydrate): 100%
SMILES: COc1cc(-c2cccc3cc([C@H](C)Nc4nc(N)ncc4C#N)n(-c4ccccc4)c(=O)c23)ccn1 [Form 1 of the sulfuric acid salt of Compound 1] [(S)-2-amino-4-((1-(8-(2-methoxypyridin-4-yl)-1-oxo-2-phenyl-1,2-dihydroisoquinolin-3-yl)ethyl)amino)pyrimidine-5-carbonitrile]

Change of water content (KF) [2]: No significant change of water content
Solid form (XRPD) after maturation ([8]; acetic acid:water 1:3, 25° C.): stable
Solid form (XRPD) after maturation ([8]; acetic acid:water 1:3, 25° C., listed as Hydrate Form 2 of free base of Compound 1): unchanged Form 2
Solid form (XRPD) after maturation ([8]; pure water, 25° C.): stable
Solid form (XRPD) after maturation ([8]; pure water, 25° C., listed as Hydrate Form 2 of free base of Compound 1): unchanged Form 2
Stability on storage at 40° C./75% RH [4]: stable
Stability on storage at 40° C./75% RH [4, 11]: Very slight changes after 1 week
Stability on storage at 25° C./93% RH [5]: stable
Stability on storage at 25° C./93% RH [5, 11]: Very slight changes after 1 week
solvent volumes giving a clear solution ([9]; 2-methyltetrahydrofuran): 50 volumes
solvent volumes giving a clear solution ([9]; DCM): 100 volumes
solvent volumes giving a clear solution ([9]; DCM:methanol 1:1): 100 volumes
solvent volumes giving a clear solution ([9]; DME): 100 volumes
solvent volumes giving a clear solution ([9]; DMSO, at RT): 10 volumes
solvent volumes giving a clear solution ([9]; THF): 100 volumes
solvent volumes giving a clear solution ([9]; THF:5% water): 50 volumes
solvent volumes giving a clear solution ([9]; acetonitrile/5% water): 100 volumes
solvent volumes giving a clear solution ([9]; chloroform, RT): 20 volumes
solvent volumes giving a clear solution ([9]; dioxane, 50° C.): 10 volumes
solvent volumes giving a clear solution ([9]; ethanol:anisole): 50 volumes
solvent volumes giving a clear solution ([9]; methanol): 100 volumes
solvent volumes giving a clear solution ([9]; methanol:anisole 1:1, at RT): 10 volumes
Solid form (XRPD) after maturation ([10]; pure water, 90° C., listed as Hydrate Form 2 of free base of Compound 1): Form 2
solubility thermodynamic ([6]; aqueous, water, thermodynamic from solid, at pH 6.47): 5 µg/mL (≈ 10.2 µM)
GVS: moisture uptake on loading between 40-50% RH [7]: 1 % w/w
GVS: moisture on loading ([7]; loaded at 40% RH, 25° C., listed as Compound 1 Free Base Form 2): 4.7% w/w moisture on loading. Immediate
GVS: moisture content reached on uptake at 40-50% RH ([7]; listed as Free base Form 2): 5.7 % w/w
dissolution rate (Dissolution; listed as Form 2 of free base hydrate): about 80%
SMILES: COc1cc(-c2cccc3cc([C@H](C)Nc4nc(N)ncc4C#N)n(-c4ccccc4)c(=O)c23)ccn1 [Form 2 of the free base of Compound 1, (S)-2-amino-4-((1-(8-(2-methoxypyridin-4-yl)-1-oxo-2-phenyl-1,2-dihydroisoquinolin-3-yl)ethyl)amino)pyrimidine-5-carbonitrile]
Stability on storage at 40° C./75% RH ([4]; listed as Free base Form 2): mainly the same pattern with a few differences
Stability on storage at 25° C./93% RH ([5]; listed as Free base Form 2): mainly the same pattern with a few differences
Solid form (XRPD) after maturation ([10]; acetic acid:water 1:3, 90° C.): some evidence of the acetic acid solvate Form 6 mixed with a majority of Form 2
GVS: moisture content reached on uptake at 40-50% RH [7, 11]: moisture uptake (40-50% RH up to 5.7% w/w)
